Experiments:
Format in all cases: functional
[1] = test system: Mus musculus; assay: In vivo antineoplastic activity against Ehrlich ascites carcinoma fluid in mice at 50 mg/kg body weight upon intraperitoneal administration; conditions: ip
[2] = organism: Mus musculus; assay: Observed biological activity converted into logit model against Ehrlich ascites carcinoma in mice
[3] = test system: Mus musculus; assay: In vivo antineoplastic activity against Ehrlich ascites carcinoma (EAC) cells in mice at 50 mg/kg body weight upon intraperitoneal administration; conditions: ip
[4] = test system: Mus musculus; assay: In vivo antineoplastic activity against Ehrlich ascites carcinoma (EAC) cells in mice at 1 mg/kg body weight upon intraperitoneal administration; conditions: ip
[5] = test system: Mus musculus; assay: In vivo antineoplastic activity against Ehrlich ascites carcinoma fluid in mice at 1 mg/kg body weight upon intraperitoneal administration; conditions: ip

| SMILES | inhibition in vivo at 50 mg/kg [1] [%] | logit activity [2] | inhibition in vivo at 50 mg/kg [3] [%] | inhibition in vivo at 1 mg/kg [4] [%] | inhibition in vivo at 1 mg/kg [5] [%] |
| --- | --- | --- | --- | --- | --- |
| O=C(NNc1ccccc1)C1CCC(=O)N1S(=O)(=O)c1ccc(Cl)cc1 (stereo unspecified) | 71.4 | 3.13 | 74.3 | – | – |
| NNC(=O)C1CCC(=O)N1S(=O)(=O)c1ccc(Cl)c(Cl)c1 (stereo unspecified) | 58.3 | 1.03 | 59.3 | – | – |
| Cc1ccc(S(=O)(=O)N2C(=O)CCC2C(=O)NNc2ccccc2)cc1 (stereo unspecified) | 64.3 | 1.89 | 77.6 | – | – |
| O=C(NNc1ccccc1)C1CCC(=O)N1S(=O)(=O)c1ccccc1 (stereo unspecified) | 85.7 | 5.59 | 79 | – | – |
| NNC(=O)C1CCC(=O)N1S(=O)(=O)c1ccc(Cl)cc1 (stereo unspecified) | 61.1 | 1.25 | 64.9 | – | – |
| O=C(NNc1ccccc1)C1CCC(=O)N1S(=O)(=O)c1ccc(Cl)c(Cl)c1 (stereo unspecified) | 57.7 | 1.16 | 66.8 | – | – |
| Cc1ccc(S(=O)(=O)N2C(=O)CCC2C(=O)NN)cc1 (stereo unspecified) | 52.8 | 0.61 | 50.1 | – | – |
| NNC(=O)C1CCC(=O)N1S(=O)(=O)c1ccccc1 (stereo unspecified) | 44.4 | -0.549 | 40.3 | – | – |
| CO[C@@]12[C@H](COC(N)=O)C3=C(C(=O)C(C)=C(N)C3=O)N1C[C@@H]1N[C@@H]12 [MITOMYCIN] | – | – | – | 100 | 100 |

— ChEMBL document CHEMBL1127768, “Possible antineoplastic agents : part 14 - synthesis, activity and QSAR studies of some 1-(substituted benzenesulphonyl)-5-oxopyrrolidine-2-carboxylic acid hydrazides” (1994)
